Experimental data from patent US11065211B2, “Isoxylitones mediated neurogenesis” (priority 2018, dated 2021).

System: cortical cells and hippocampal cells
Test: MTT assay, in vitro screening of compounds for cell proliferation activity
Type: cell-based, rat
Details: 24 hrs treatment
Text: The Tetrazolium MTT [3-(4, 5-dimethyl thiazol-2-yl)-2,5-diphenyl tetrazolium bromide] Assay: MTT assay was used to screen various compounds for their proliferating effect on cortical cells and hippocampal cells. The principle of MTT test is based on the ability of live cells to form insoluble purple formazan product from the breakdown of the water soluble yellow tetrazolium salt by mitochondrial enzyme succinate dehydrogenase (Mosmann, 1983). The resulting intracellular purple formazan can quantify by spectrophotometric means. The MTT Cell Proliferation Assay measures the cell proliferation rate and conversely, when metabolic events lead to apoptosis or necrosis, the reduction in cell viability.
The density of the cortical and hippocampal cells was adjusted at the density 2×10^5 cells/mL in complete DMEM medium (5% FBS). The cells (5000/well) were then plated in 96-wells plate and incubated for 24 hrs at 37° C. with 5% CO2. Following 24 hrs incubation, media was removed and 100 μL of each test compounds in DMEM media (5% FBS) were added. […] The culture plates were re-incubated for 24 hrs at 37° C. in 5% CO2. Cells treated with 0.1% DMSO in complete media (5% FBS) were used as vehicle controls. […] The absorbance was read at 495 nm on spectrophotometer. […] The percent rate of proliferation was calculated using the following formula, % rate of proliferation={(At−Ab)/(Ac−Ab)}×100

CC1=CC(=CC(=O)O)CC(C)(C)C1 (mixture of isomers) [acid analog, (E/Z)-2-(3,5,5-trimethylcyclohex-2-enylidene)acetic acid]
activity on the cell proliferation (MTT screening): significant potent activity of isoxylitones followed by acid analog
